Data as given in PubChem BioAssay (NCI).
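Briefly, cells in 96-well plates were exposed to five compound concentrations for 48 h, and endpoints were estimated by linear interpolation. Abbreviation: GI50, concentration required for 50% inhibition of growth. At the TGI there is no net growth.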

Key:
Experiment in all cases: inhibition of tumour cell growth, NCI panel, 48 h
SF-295 CNS = tested on: SF-295 CNS
HT29 colon = tested on: HT29 colon
DU-145 prostate = tested on: DU-145 prostate
MCF7 breast = tested on: MCF7 breast
EKVX NSCLC = tested on: EKVX NSCLC
SNB-19 CNS = tested on: SNB-19 CNS
HS 578T breast = tested on: HS 578T breast
T-47D breast = tested on: T-47D breast
HCT-15 colon = tested on: HCT-15 colon
MDA-MB-435 = tested on: MDA-MB-435
SN12C renal = tested on: SN12C renal
K-562 leukemia = tested on: K-562 leukemia
786-0 renal = tested on: 786-0 renal
TK-10 renal = tested on: TK-10 renal
MDA-MB-231 breast = tested on: MDA-MB-231 breast
UO-31 renal = tested on: UO-31 renal
RXF 393 renal = tested on: RXF 393 renal
OVCAR-8 ovarian = tested on: OVCAR-8 ovarian
HCC-2998 colon = tested on: HCC-2998 colon
NCI-H460 lung = tested on: NCI-H460 lung
A498 renal = tested on: A498 renal
MOLT-4 leukemia = tested on: MOLT-4 leukemia
A549 NSCLC = tested on: A549 NSCLC
LOX IMVI melanoma = tested on: LOX IMVI melanoma
KM12 colon = tested on: KM12 colon
BT-549 breast = tested on: BT-549 breast
UACC-257 melanoma = tested on: UACC-257 melanoma
SR leukemia = tested on: SR leukemia
SW-620 colon = tested on: SW-620 colon
SK-MEL-2 melanoma = tested on: SK-MEL-2 melanoma
SK-MEL-5 melanoma = tested on: SK-MEL-5 melanoma
SK-MEL-28 melanoma = tested on: SK-MEL-28 melanoma
HOP-92 NSCLC = tested on: HOP-92 NSCLC
SK-OV-3 ovarian = tested on: SK-OV-3 ovarian
NCI-H226 lung = tested on: NCI-H226 lung
NCI-H522 lung = tested on: NCI-H522 lung
OVCAR-4 ovarian = tested on: OVCAR-4 ovarian
ACHN renal = tested on: ACHN renal
OVCAR-3 ovarian = tested on: OVCAR-3 ovarian
SF-268 CNS = tested on: SF-268 CNS
COLO 205 colon = tested on: COLO 205 colon
M14 melanoma = tested on: M14 melanoma
OVCAR-5 ovarian = tested on: OVCAR-5 ovarian
SF-539 CNS = tested on: SF-539 CNS
SNB-75 CNS = tested on: SNB-75 CNS
HL-60(TB) leukemia = tested on: HL-60(TB) leukemia
NCI/ADR-RES ovarian = tested on: NCI/ADR-RES ovarian
HCT-116 colon = tested on: HCT-116 colon
UACC-62 melanoma = tested on: UACC-62 melanoma
CCRF-CEM leukemia = tested on: CCRF-CEM leukemia
CAKI-1 renal = tested on: CAKI-1 renal
PC-3 prostate = tested on: PC-3 prostate
NCI-H23 lung = tested on: NCI-H23 lung
U251 CNS = tested on: U251 CNS
IGROV1 ovarian = tested on: IGROV1 ovarian
HOP-62 NSCLC = tested on: HOP-62 NSCLC
MALME-3M melanoma = tested on: MALME-3M melanoma
RPMI-8226 leukemia = tested on: RPMI-8226 leukemia

Cc1cccc(/C=C/C(=O)Nc2ncc(Cc3cccc(C)c3)s2)c1
GI50 (SF-295 CNS): 329 nM
TGI (SF-295 CNS): 2460 nM
GI50 (HT29 colon): 739 nM
TGI (HT29 colon): 2580 nM
GI50 (DU-145 prostate): 876 nM
TGI (DU-145 prostate): > 100000 nM
GI50 (MCF7 breast): 820 nM
TGI (MCF7 breast): > 100000 nM
GI50 (EKVX NSCLC): 1220 nM
TGI (EKVX NSCLC): > 100000 nM
GI50 (SNB-19 CNS): 1400 nM
TGI (SNB-19 CNS): > 100000 nM
GI50 (HS 578T breast): 1040 nM
TGI (HS 578T breast): > 100000 nM
GI50 (T-47D breast): 575 nM
TGI (T-47D breast): > 100000 nM
GI50 (HCT-15 colon): 585 nM
TGI (HCT-15 colon): > 100000 nM
GI50 (MDA-MB-435): 303 nM
TGI (MDA-MB-435): 1140 nM
GI50 (SN12C renal): 1680 nM
TGI (SN12C renal): > 100000 nM
GI50 (K-562 leukemia): 117 nM
TGI (K-562 leukemia): > 100000 nM
GI50 (786-0 renal): 1190 nM
TGI (786-0 renal): > 100000 nM
GI50 (TK-10 renal): > 25600 nM
TGI (TK-10 renal): > 100000 nM
GI50 (MDA-MB-231 breast): 2920 nM
TGI (MDA-MB-231 breast): > 100000 nM
GI50 (UO-31 renal): 618 nM
TGI (UO-31 renal): > 100000 nM
GI50 (RXF 393 renal): 910 nM
TGI (RXF 393 renal): 5950 nM
GI50 (OVCAR-8 ovarian): 1360 nM
TGI (OVCAR-8 ovarian): > 100000 nM
GI50 (HCC-2998 colon): 1680 nM
TGI (HCC-2998 colon): > 100000 nM
GI50 (NCI-H460 lung): 545 nM
TGI (NCI-H460 lung): > 100000 nM
GI50 (A498 renal): > 27700 nM
TGI (A498 renal): > 100000 nM
GI50 (MOLT-4 leukemia): 710 nM
TGI (MOLT-4 leukemia): > 100000 nM
GI50 (A549 NSCLC): 1020 nM
TGI (A549 NSCLC): > 100000 nM
GI50 (LOX IMVI melanoma): 841 nM
TGI (LOX IMVI melanoma): > 100000 nM
GI50 (KM12 colon): 339 nM
TGI (KM12 colon): > 75000 nM
GI50 (BT-549 breast): 1290 nM
TGI (BT-549 breast): > 100000 nM
GI50 (UACC-257 melanoma): 1590 nM
TGI (UACC-257 melanoma): > 100000 nM
GI50 (SR leukemia): 179 nM
TGI (SR leukemia): > 100000 nM
GI50 (SW-620 colon): 1130 nM
TGI (SW-620 colon): > 100000 nM
GI50 (SK-MEL-2 melanoma): 627 nM
TGI (SK-MEL-2 melanoma): 4750 nM
GI50 (SK-MEL-5 melanoma): 1230 nM
TGI (SK-MEL-5 melanoma): > 81100 nM
GI50 (SK-MEL-28 melanoma): 1930 nM
TGI (SK-MEL-28 melanoma): > 100000 nM
GI50 (HOP-92 NSCLC): 1250 nM
TGI (HOP-92 NSCLC): > 100000 nM
GI50 (SK-OV-3 ovarian): 1670 nM
TGI (SK-OV-3 ovarian): > 100000 nM
GI50 (NCI-H226 lung): 1280 nM
TGI (NCI-H226 lung): > 100000 nM
GI50 (NCI-H522 lung): 599 nM
TGI (NCI-H522 lung): 2080 nM
GI50 (OVCAR-4 ovarian): 1390 nM
TGI (OVCAR-4 ovarian): > 100000 nM
GI50 (ACHN renal): 1060 nM
TGI (ACHN renal): > 100000 nM
GI50 (OVCAR-3 ovarian): 1050 nM
TGI (OVCAR-3 ovarian): 8550 nM
GI50 (SF-268 CNS): 2540 nM
TGI (SF-268 CNS): > 100000 nM
GI50 (COLO 205 colon): 766 nM
TGI (COLO 205 colon): 3000 nM
GI50 (M14 melanoma): 568 nM
TGI (M14 melanoma): 1890 nM
GI50 (OVCAR-5 ovarian): 1440 nM
TGI (OVCAR-5 ovarian): > 100000 nM
GI50 (SF-539 CNS): 863 nM
TGI (SF-539 CNS): > 32500 nM
GI50 (SNB-75 CNS): 903 nM
TGI (SNB-75 CNS): > 20500 nM
GI50 (HL-60(TB) leukemia): 579 nM
TGI (HL-60(TB) leukemia): 1970 nM
GI50 (NCI/ADR-RES ovarian): 869 nM
TGI (NCI/ADR-RES ovarian): > 100000 nM
GI50 (HCT-116 colon): 1100 nM
TGI (HCT-116 colon): > 100000 nM
GI50 (UACC-62 melanoma): 144 nM
TGI (UACC-62 melanoma): > 100000 nM
GI50 (CCRF-CEM leukemia): 884 nM
TGI (CCRF-CEM leukemia): > 100000 nM
GI50 (CAKI-1 renal): 518 nM
TGI (CAKI-1 renal): > 100000 nM
GI50 (PC-3 prostate): 875 nM
TGI (PC-3 prostate): > 100000 nM
GI50 (NCI-H23 lung): 6620 nM
TGI (NCI-H23 lung): > 100000 nM
GI50 (U251 CNS): 1110 nM
TGI (U251 CNS): > 100000 nM
GI50 (IGROV1 ovarian): 1670 nM
TGI (IGROV1 ovarian): > 100000 nM
GI50 (HOP-62 NSCLC): 633 nM
TGI (HOP-62 NSCLC): > 100000 nM
GI50 (MALME-3M melanoma): 1300 nM
TGI (MALME-3M melanoma): > 100000 nM
GI50 (RPMI-8226 leukemia): 1140 nM
TGI (RPMI-8226 leukemia): > 100000 nM
